From patent US7754795B2, “Coating composition” (3M Innovative Properties Company, priority 2006, dated 2010)
Marks after values point to notes of the source that are not given here.

Assay: Determination of bio-accumulation: urinary clearance pharmacokinetic study in rats, with observation for toxicity and gross necropsy
Type: in vivo, male Sprague Dawley rats
Conditions: rat, oral gavage
Method: The perfluorinated and partially fluorinated carboxylates were evaluated for urinary clearance using a pharmacokinetic study in rats. The goal was to measure the total amount of parent compound eliminated via urinary output and estimate the rate of elimination. The study was approved by the IACUC (Institutional Animal Care and Use Committees) and was performed in 3M Company's AAALAC (Association for Assessment and Accreditation of Laboratory Animal Care)-accredited facility.
The study utilized male Sprague Dawley rats, 6 to 8 weeks of age, and approximately 200 to 250 g body weight at study onset. The test compounds of table 2 were administered at a dose of 73 micro Moles per kg body weight in rats (N=3 animals per tested compound). All test compounds were prepared in sterile deionized water and given to rats via oral gavage. After test compounds administration, the rats were housed individually in metabolism cages for urine collection: 0 to 6 hours, 6 to 24 hours, 24 to 48 hours and […]. Animals were observed throughout the study for clinical signs of toxicity. Gross necropsy was performed at the termination of each study (96 hours post-dose) with sera and liver samples being retained from each animal.
The concentration of the parent compound or metabolites thereof were quantitatively measured via fluorine NMR on each urine sample for each animal at each time point based on internally added standards.

[1] = 73 micro Moles per kg, no parent compound observed in the urine

| SMILES | T½ (73 micro Moles per kg body weight, parent compound in urine by fluorine NMR, exponential least squares curve fitting) [h] | % Recovery (96 h), based on elimination of the major metabolite C3F7—O—CHFCOO− [1] | T½ (h), based on elimination of the major metabolite C3F7—O—CHFCOO− [1] |
| --- | --- | --- | --- |
| N.O=C(O)C(F)(F)OC(F)(F)C(F)(F)C(F)(F)OC(F)(F)F [Compound 1, CF3—O—(CF2)3—O—CF2—COONH4] | 10 |  |  |
| N.O=C(O)COC(F)(F)C(F)OC(F)(F)C(F)(F)C(F)(F)F (stereo not drawn) [Compound 16, C3F7—O—CFH—CF2—O—CH2—COONH4] |  | 65* % | 13* h |
